Measurements reported in ChEMBL document CHEMBL4334471, “Discovery of 1,8-disubstituted-[1,2,3]triazolo[4,5-c]quinoline derivatives as a new class of Hippo signaling pathway inhibitors” (Bioorg Med Chem Lett, 2019).

Key:
[1] = tested on: Mast/stem cell growth factor receptor Kit (Homo sapiens), P10721 [D816H]; assay: Inhibition of recombinant human C-Kit D816H mutant (544 to end residues) assessed as residual activity at 10 uM poly(Glu, Tyr) 4:1 as substrate incubated 40 mins in presence of [gamma-33ATP] by scintillation counting based radiometry assay relative to control
[2] = molecular target: Casein kinase II subunit alpha (Homo sapiens) (UniProt P68400); assay: Inhibition of recombinant full length human CK2alpha1 assessed as residual activity at 10 uM using RRRDDDSDDD as substrate incubated 40 mins in presence of [gamma-33ATP] by scintillation counting based radiometry assay relative to control
Mus musculus [3] = species on record: Mus musculus; assay: Inhibition of mouse ABL1 L782P/G784R/W785L/L786V mutant (27 to end residues) at 10 uM using EAIYAAPFAKKK as substrate incubated for 40 mins in presence of [gamma-33ATP] by scintillation counting based radiometry assay relative to control; design: scale not given: the % may be the effect or the level left
[4] = molecular target: Serine/threonine-protein kinase PAK 4 (Homo sapiens) (UniProt O96013); assay: Inhibition of recombinant human PAK4 (295 to end residues) assessed as residual activity at 10 uM using myelin basic protein as substrate measured after 40 mins in presence of [gamma33P]ATP by scintillation counting based radiometry assay relative to control
[5] = tested on: PI3-kinase p110-alpha/p85-alpha (Homo sapiens), P27986+P42336 [H1047R]; assay: Inhibition of recombinant full-length human PI3K p110/p85 H1047R mutant assessed as residual activity at 10 uM using phosphatidylinositol-4, 5-bisphosphate as substrate incubated for 40 mins in presence of [gamma33P]ATP by scintillation counting based radiometry assay relative to control
Fungi = assay: Inhibition of recombinant fungi CK1 (2 to 298 residues) assessed as residual activity at 10 uM using KRRRALS(p)VASLPGL as substrate incubated for 40 mins in presence of [gamma-33ATP] by scintillation counting based radiometry assay relative to control
[6] = tested on: Serine/threonine-protein kinase Sgk2 (Homo sapiens), Q9HBY8 [S416D]; assay: Inhibition of recombinant human SGK2 S416D mutant (54 to end residues) assessed as residual activity at 10 uM using GRPRTSSFAEGKK as substrate incubated for 40 mins in presence of [gamma33P]ATP by scintillation counting based radiometry assay relative to control
Mus musculus [7] = species on record: Mus musculus; assay: Inhibition of recombinant full-length mouse PI3K p110/p85 H1047R mutant assessed as residual activity at 10 uM using phosphatidylinositol-4, 5-bisphosphate as substrate incubated for 40 mins in presence of [gamma33P]ATP by scintillation counting based radiometry assay relative to control
[8] = molecular target: Serine/threonine-protein kinase PRP4 homolog (Homo sapiens) (UniProt Q13523); assay: Inhibition of recombinant human PRP4 (663 to end residues) assessed as residual activity at 10 uM using casein as substrate incubated for 40 mins in presence of [gamma33P]ATP by scintillation counting based radiometry assay relative to control
[9] = molecular target: Protein-tyrosine kinase 6 (Homo sapiens) (UniProt Q13882); assay: Inhibition of recombinant full length human BRK assessed as residual activity at 10 uM using poly(Glu, Tyr) 4:1 as substrate incubated for 40 mins in presence of [gamma-33ATP] by scintillation counting based radiometry assay relative to control
[10] = tested on: Serine/threonine-protein kinase B-raf (Homo sapiens), P15056 [V600E]; assay: Inhibition of recombinant full length human B-Raf V599E mutant (416 to end residues) assessed as residual activity at 10 uM using myelin basic protein as substrate incubated for 40 mins in presence of [gamma-33ATP] by scintillation counting based radiometry assay relative to control
[11] = molecular target: Receptor-type tyrosine-protein kinase FLT3 (Homo sapiens) (UniProt P36888); assay: Inhibition of recombinant human FLT3 (564 to end residues) assessed as residual activity at 10 uM using EAIYAAPFAKKK as substrate at 40 mins in presence of [gamma-33ATP] by scintillation counting based radiometry assay relative to control
[12] = molecular target: Serine/threonine-protein kinase Nek7 (Homo sapiens) (UniProt Q8TDX7); assay: Inhibition of recombinant human NEK7 (2 to end residues) assessed as residual activity at 10 uM using FLAKSFGSPNRAYKK as substrate measured after 40 mins in presence of [gamma33P]ATP by scintillation counting based radiometry assay relative to control
[13] = tested on: Tyrosine-protein kinase ABL1 (Homo sapiens), P00519 [H396P]; assay: Inhibition of human ABL1 H396P mutant (27 to end residues) assessed as residual activity at 10 uM using EAIYAAPFAKKK as substrate incubated for 40 mins in presence of [gamma-33ATP] by scintillation counting based radiometry assay relative to control
[14] = molecular target: Tyrosine-protein kinase Lck (Homo sapiens) (UniProt P06239); assay: Inhibition of recombinant full length human LCK assessed as residual activity at 10 uM using KVEKIGEGTYGVV as substrate after 40 mins in presence of [gamma-33ATP] by scintillation counting based radiometry assay relative to control
[15] = tested on: Proto-oncogene tyrosine-protein kinase receptor Ret (Homo sapiens), P07949 [V804M]; assay: Inhibition of recombinant human Ret V804M mutant (658 to end residues) assessed as residual activity at 10 uM using KKKVSRSGLYRSPSMPENLNRPR as substrate incubated for 40 mins in presence of [gamma33P]ATP by scintillation counting based radiometry assay relative to control
[16] = molecular target: Dual specificity protein kinase CLK4 (Homo sapiens) (UniProt Q9HAZ1); assay: Inhibition of recombinant human CLK4 (128 to end residues) assessed as residual activity at 10 uM using YRRAAVPPSPSLSRHSSPHQS(p)EDEEE as substrate incubated 40 mins in presence of [gamma-33ATP] by scintillation counting based radiometry assay relative to control
[17] = molecular target: Dual specificity tyrosine-phosphorylation-regulated kinase 1B (Homo sapiens) (UniProt Q9Y463); assay: Inhibition of recombinant human DYRK1B assessed as residual activity at 10 uM using RRRFRPASPLRGPP as substrate at 40 mins in presence of [gamma-33ATP] by scintillation counting based radiometry assay relative to control
[18] = molecular target: Dual specificity mitogen-activated protein kinase kinase 3 (Homo sapiens) (UniProt P46734); assay: Inhibition of recombinant human MKK3 assessed as residual activity at 10 uM by scintillation counting based radiometry assay relative to control
[19] = molecular target: Fibroblast growth factor receptor 2 (Homo sapiens) (UniProt P21802); assay: Inhibition of recombinant human FGFR2 (456 to 770 residues) assessed as residual activity at 10 uM using poly(Glu, Tyr) 4:1 as substrate at 40 mins in presence of [gamma-33ATP] by scintillation counting based radiometry assay relative to control
[20] = molecular target: DNA-dependent protein kinase catalytic subunit (Homo sapiens) (UniProt P78527); assay: Inhibition of human DNA-PK assessed as residual activity at 10 uM using GST-cMyc-p53 as substrate measured after 40 mins by fluorescence assay relative to control

Chain of Dual specificity tyrosine-phosphorylation-regulated kinase 1B (Homo sapiens) (Q9Y463 whole entry, looked up): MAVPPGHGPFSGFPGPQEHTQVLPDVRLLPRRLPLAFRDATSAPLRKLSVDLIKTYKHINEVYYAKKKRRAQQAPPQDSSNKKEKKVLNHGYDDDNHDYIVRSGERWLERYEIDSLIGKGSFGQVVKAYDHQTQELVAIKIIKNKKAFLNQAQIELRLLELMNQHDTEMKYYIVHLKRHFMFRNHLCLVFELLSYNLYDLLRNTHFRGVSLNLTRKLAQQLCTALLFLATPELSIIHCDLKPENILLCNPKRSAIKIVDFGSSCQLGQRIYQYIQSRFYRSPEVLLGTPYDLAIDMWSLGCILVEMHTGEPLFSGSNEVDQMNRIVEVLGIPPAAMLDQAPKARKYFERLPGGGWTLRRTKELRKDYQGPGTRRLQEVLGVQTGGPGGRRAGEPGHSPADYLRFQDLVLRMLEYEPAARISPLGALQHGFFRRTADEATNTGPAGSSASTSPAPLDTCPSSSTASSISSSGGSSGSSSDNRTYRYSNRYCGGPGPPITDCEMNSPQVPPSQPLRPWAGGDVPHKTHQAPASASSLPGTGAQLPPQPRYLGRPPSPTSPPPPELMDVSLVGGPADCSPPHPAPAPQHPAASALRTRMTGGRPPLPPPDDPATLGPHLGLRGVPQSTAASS
Chain of Fibroblast growth factor receptor 2 (Homo sapiens) (P21802 22-821 limits assumed): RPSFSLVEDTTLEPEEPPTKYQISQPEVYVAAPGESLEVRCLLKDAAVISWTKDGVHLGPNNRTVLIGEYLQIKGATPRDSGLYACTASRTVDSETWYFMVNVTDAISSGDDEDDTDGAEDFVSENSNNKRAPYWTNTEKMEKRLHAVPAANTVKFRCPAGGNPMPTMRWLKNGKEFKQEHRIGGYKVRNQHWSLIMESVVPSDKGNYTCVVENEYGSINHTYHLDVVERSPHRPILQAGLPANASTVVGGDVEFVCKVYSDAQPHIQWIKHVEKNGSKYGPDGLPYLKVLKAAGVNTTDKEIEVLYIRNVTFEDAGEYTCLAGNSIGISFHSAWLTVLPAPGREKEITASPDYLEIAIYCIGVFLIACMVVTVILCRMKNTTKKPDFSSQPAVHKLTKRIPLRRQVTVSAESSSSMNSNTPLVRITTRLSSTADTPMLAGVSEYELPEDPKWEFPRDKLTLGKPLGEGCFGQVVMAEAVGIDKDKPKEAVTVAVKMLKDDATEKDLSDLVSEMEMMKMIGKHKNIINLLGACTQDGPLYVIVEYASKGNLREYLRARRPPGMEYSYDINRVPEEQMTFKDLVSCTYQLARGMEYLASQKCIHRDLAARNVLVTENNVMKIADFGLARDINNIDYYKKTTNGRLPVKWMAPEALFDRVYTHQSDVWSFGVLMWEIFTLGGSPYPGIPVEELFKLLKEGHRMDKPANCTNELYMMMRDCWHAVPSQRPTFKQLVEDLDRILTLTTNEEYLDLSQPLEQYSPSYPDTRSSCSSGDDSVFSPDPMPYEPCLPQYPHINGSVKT
Chain of Serine/threonine-protein kinase PAK 4 (Homo sapiens) (O96013 whole entry, looked up): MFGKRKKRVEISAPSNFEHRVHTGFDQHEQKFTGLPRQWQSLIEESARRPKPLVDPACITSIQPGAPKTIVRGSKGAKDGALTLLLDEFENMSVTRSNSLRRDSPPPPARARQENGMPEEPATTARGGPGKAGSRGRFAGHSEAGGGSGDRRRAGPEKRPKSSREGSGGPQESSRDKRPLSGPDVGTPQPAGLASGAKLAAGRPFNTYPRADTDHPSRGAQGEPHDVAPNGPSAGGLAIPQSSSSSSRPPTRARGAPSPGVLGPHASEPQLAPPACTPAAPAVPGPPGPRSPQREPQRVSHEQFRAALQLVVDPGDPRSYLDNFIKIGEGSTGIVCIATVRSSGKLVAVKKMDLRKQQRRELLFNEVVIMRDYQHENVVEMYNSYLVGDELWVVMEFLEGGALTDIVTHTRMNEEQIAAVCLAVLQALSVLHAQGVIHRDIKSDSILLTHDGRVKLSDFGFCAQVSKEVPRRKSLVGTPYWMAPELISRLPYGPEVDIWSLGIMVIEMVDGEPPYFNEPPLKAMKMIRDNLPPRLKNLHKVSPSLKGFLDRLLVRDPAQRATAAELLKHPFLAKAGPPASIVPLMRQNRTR
Chain of Serine/threonine-protein kinase B-raf (Homo sapiens), P15056 [V600E] (P15056 whole entry V600E): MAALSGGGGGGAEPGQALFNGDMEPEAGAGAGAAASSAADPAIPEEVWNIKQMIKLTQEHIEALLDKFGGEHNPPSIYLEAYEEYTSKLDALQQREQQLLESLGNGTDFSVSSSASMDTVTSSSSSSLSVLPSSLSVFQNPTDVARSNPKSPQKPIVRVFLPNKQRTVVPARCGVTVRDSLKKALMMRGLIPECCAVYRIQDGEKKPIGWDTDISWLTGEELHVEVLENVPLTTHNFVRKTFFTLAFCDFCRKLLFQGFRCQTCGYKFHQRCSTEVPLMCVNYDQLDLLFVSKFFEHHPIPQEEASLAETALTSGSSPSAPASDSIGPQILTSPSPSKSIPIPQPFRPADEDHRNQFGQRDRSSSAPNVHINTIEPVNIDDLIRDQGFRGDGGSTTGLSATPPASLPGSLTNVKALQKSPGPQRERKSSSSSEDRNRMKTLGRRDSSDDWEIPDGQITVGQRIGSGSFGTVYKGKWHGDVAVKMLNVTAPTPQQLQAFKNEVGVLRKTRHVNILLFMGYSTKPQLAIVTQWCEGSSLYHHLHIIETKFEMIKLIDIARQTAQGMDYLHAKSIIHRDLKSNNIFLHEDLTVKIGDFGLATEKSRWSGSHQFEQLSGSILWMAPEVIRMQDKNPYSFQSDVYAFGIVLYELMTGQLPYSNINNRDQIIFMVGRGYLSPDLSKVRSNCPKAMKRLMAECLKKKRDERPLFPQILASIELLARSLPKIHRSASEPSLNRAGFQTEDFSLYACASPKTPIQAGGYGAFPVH
Chain of Dual specificity mitogen-activated protein kinase kinase 3 (Homo sapiens) (P46734 whole entry, the tested form may be a part): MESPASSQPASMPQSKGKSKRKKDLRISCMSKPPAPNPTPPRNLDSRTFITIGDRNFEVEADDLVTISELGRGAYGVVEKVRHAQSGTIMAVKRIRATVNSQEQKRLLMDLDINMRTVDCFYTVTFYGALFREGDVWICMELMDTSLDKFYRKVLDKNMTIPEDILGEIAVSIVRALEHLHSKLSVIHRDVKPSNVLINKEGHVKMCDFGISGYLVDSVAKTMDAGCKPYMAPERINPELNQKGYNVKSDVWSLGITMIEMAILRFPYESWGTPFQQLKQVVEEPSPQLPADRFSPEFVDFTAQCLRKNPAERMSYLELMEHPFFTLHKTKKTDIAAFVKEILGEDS
Chain of Casein kinase II subunit alpha (Homo sapiens) (P68400 whole entry, looked up): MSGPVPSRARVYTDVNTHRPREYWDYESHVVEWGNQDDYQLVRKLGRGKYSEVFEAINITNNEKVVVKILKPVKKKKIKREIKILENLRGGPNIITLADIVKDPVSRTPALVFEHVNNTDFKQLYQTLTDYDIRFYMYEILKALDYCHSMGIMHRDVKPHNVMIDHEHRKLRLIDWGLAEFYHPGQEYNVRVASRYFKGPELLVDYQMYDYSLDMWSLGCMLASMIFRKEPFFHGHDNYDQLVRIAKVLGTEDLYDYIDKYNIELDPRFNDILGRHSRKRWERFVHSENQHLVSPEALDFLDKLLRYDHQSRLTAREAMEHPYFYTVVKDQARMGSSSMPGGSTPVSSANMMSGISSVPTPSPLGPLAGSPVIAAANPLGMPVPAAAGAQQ
Chain of Serine/threonine-protein kinase PRP4 homolog (Homo sapiens) (Q13523 whole entry): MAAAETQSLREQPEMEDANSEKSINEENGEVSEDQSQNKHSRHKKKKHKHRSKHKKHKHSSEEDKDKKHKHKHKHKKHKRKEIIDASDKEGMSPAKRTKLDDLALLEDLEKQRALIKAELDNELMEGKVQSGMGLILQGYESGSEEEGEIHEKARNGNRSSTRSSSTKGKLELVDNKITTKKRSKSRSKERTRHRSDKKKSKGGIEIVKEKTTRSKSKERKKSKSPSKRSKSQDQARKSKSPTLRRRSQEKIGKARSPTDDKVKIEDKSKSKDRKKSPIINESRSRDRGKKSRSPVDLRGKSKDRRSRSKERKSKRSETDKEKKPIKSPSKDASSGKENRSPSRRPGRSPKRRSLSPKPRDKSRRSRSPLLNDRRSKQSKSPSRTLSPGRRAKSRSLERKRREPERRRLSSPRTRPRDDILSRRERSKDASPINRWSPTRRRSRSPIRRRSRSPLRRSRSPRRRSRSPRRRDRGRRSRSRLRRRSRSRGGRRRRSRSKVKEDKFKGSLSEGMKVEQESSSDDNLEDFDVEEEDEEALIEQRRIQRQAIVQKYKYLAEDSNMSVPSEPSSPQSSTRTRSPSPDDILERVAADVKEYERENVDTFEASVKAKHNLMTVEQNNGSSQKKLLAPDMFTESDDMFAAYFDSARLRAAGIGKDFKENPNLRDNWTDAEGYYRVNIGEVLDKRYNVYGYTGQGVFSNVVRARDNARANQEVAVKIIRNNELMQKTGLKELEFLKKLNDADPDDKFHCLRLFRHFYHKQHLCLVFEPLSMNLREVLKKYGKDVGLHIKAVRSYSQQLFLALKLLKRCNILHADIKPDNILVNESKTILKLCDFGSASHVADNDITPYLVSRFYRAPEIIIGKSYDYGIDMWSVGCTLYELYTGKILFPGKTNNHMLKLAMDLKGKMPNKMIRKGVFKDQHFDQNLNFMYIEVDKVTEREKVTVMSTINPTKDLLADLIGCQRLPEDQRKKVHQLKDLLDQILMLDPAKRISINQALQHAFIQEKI
Chain of Protein-tyrosine kinase 6 (Homo sapiens) (Q13882 whole entry, looked up): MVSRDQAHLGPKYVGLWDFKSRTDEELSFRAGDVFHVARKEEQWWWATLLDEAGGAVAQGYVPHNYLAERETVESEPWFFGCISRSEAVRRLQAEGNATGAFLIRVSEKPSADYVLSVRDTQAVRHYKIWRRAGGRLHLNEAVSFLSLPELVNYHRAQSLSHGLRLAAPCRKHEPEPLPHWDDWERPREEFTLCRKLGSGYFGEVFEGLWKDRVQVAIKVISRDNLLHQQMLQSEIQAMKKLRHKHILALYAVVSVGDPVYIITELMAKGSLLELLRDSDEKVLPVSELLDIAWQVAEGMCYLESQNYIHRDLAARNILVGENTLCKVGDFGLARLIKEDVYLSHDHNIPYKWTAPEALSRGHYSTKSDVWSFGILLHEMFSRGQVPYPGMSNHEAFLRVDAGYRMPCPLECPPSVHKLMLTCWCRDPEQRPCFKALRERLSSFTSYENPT

**Q.** C[C@@H](c1ccccc1)n1nnc2cnc3ccc(-c4cnc5[nH]ccc5c4)cc3c21 was tested. Which Activity [1] did it give?
**A.** The Activity was 8%.

**Q.** What about the Activity [2] of the same compound?
**A.** The Activity was 68%.

**Q.** And the Activity (Mus musculus [3])?
**A.** Its Activity is 0%.

**Q.** What about the Activity [4] of the same compound?
**A.** Its Activity is 88%.

**Q.** What about the Activity [5] of the same compound?
**A.** Its Activity is 16%.

**Q.** And the Activity (Fungi)?
**A.** The Activity was 37%.

**Q.** What about the Activity [6] of the same compound?
**A.** Its Activity is 36%.

**Q.** What about the Activity (Mus musculus [7]) of the same compound?
**A.** Its Activity is 5%.

**Q.** What about the Activity [8] of the same compound?
**A.** The Activity was 86%.

**Q.** And the Activity [9]?
**A.** The Activity was 21%.

**Q.** And the Activity [10]?
**A.** The Activity was 64%.

**Q.** What about the Activity [11] of the same compound?
**A.** Its Activity is 28%.

**Q.** And the Activity [12]?
**A.** Its Activity is 119%.

**Q.** What about the Activity [13] of the same compound?
**A.** Its Activity is -1%.

**Q.** What about the Activity [14] of the same compound?
**A.** Its Activity is 6%.

**Q.** What about the Activity [15] of the same compound?
**A.** Its Activity is 69%.

**Q.** And the Activity [16]?
**A.** Its Activity is 46%.

**Q.** What about the Activity [17] of the same compound?
**A.** The Activity was 83%.

**Q.** What about the Activity [18] of the same compound?
**A.** Its Activity is 115%.

**Q.** And the Activity [19]?
**A.** The Activity was 32%.

**Q.** And the Activity [20]?
**A.** Its Activity is 4%.
